In this assay the target is T1, full-length human PKCι (Homo sapiens, UniProt P41743).
T1 construct: Recombinant, full-length human PKCι expressed in Sf21 insect cells is also commercially available; purchased; host or cells: Sf21 insect cells
T1 sequence (P41743 1-596): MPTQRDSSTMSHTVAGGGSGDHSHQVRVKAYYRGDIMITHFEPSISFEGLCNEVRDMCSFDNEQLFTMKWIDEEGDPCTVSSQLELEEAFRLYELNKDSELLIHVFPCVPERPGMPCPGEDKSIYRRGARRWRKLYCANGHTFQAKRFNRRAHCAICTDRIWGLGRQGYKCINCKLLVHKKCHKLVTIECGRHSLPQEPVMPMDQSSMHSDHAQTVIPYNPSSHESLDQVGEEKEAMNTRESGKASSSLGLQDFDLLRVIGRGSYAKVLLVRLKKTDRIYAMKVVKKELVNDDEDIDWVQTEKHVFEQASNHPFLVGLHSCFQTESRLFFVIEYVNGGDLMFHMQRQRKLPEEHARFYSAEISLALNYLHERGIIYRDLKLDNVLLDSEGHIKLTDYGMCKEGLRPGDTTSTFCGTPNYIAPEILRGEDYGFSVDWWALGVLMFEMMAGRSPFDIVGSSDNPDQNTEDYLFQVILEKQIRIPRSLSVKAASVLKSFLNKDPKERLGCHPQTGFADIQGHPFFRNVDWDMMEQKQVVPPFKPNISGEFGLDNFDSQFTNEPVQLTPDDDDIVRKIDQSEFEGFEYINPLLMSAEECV
Kind of assay: PKCι IC50 IMAP assay, full-length PKCι at 150 μM ATP. The format is biochemical. Conditions: read-out: IC50 in IMAP assay against full length PKCi at 150 μM ATP. In outline:
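IC50 from IMAP FP (ex 485/em 530 nm) after 60 min room-temperature reaction in pH 7.5 tris buffer with 9 mM MgCl2 and 0.9 mM DTT. Enzyme: full-length Sf21-expressed PKCι (~15 pM); ATP 150 μM, five times KM^APP; FAM-labelled peptide 100 nM; DMSO 4%.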
Consider `Cc1ccc(C(C)C)cc1Nc1cc(-c2nc(N3CCNCC3)c3c(C4CC4)cncc3n2)ccn1` [Example 558, [4-(5-Cyclopropyl-4-piperazin-1-yl-pyrido[3,4-d]pyrimidin-2-yl)-pyridin-2-yl]-(5-isopropyl-2-methyl-phenyl)-amine], for which the half-maximal inhibitory concentration (IC50) was 100 to 1000 nM. For `[2H]c1c([2H])c([2H])c(Nc2cc(-c3nc(N4CCNCC4)c4c(C5CC5)cncc4n3)ccn2)c([2H])c1[2H]` [Example 559, [4-(5-Cyclopropyl-4-piperazin-1-yl-pyrido[3,4-d]pyrimidin-2-yl)-pyridin-2-yl]-pentdeuterio-phenyl-amine], the half-inhibitory concentration (IC50) is less than 100 nM.

Regarding `CC(O)c1ccccc1Nc1cc(-c2nc(N3CCNCC3)c3c(C4CC4)cncc3n2)ccn1` (centres unmarked) [Example 560, 1-{2-[4-(5-Cyclopropyl-4-piperazin-1-yl-pyrido[3,4-d]pyrimidin-2-yl)-pyridin-2-ylamino]-phenyl}-ethanol], the 50% inhibitory concentration (IC50) fell in the range of 100 to 1000 nM. For `N[C@H]1CCC[C@H]1C(=O)Nc1cc(-c2nc(N3CCNCC3)c3c(C4CC4)cncc3n2)ccn1` [Example 561, (1R,2S)-2-Amino-cyclopentane-carboxylic acid [4-(5-cyclopropyl-4-piperazin-1-yl-pyrido[3,4-d]pyrimidin-2-yl)-pyridin-2-yl]-amide] the value was less than 100 nM; for `OC1(C2CN(c3nc(-c4ccnc(Cl)c4)nc4cncc(C5CC5)c34)CCN2)CC1` (centres unmarked) [Example 562, 1-{4-[2-(2-Chloro-pyridin-4-yl)-5-cyclopropyl-pyrido[3,4-d]pyrimidin-4-yl]-piperazin-2-yl}-cyclopropanol], 100 to 1000 nM; for `c1cc(-c2nc(N3CCNCC3)c3c(C4CC4)cncc3n2)cc(Nc2ccc3ccnn3c2)n1` [Example 563, [4-(5-Cyclopropyl-4-piperazin-1-yl-pyrido[3,4-d]pyrimidin-2-yl)-pyridin-2-yl]-pyrazolo[1,5-a]pyridin-6-yl-amine], less than 100 nM.

Regarding `c1cc(-c2nc(N3CCNCC3)c3c(C4CC4)cncc3n2)cc(Nc2ccn3nccc3c2)n1` [Example 564, [4-(5-Cyclopropyl-4-piperazin-1-yl-pyrido[3,4-d]pyrimidin-2-yl)-pyridin-2-yl]-pyrazolo[1,5-a]pyridin-5-yl-amine], the IC50 was less than 100 nM. For `FC(F)(F)c1cnnc(Nc2cc(-c3nc(N4CCNCC4)c4c(C5CC5)cncc4n3)ccn2)c1` [Example 565, [4-(5-Cyclopropyl-4-piperazin-1-yl-pyrido[3,4-d]pyrimidin-2-yl)-pyridin-2-yl]-(5-trifluoromethyl-pyridazin-3-yl)-amine] the value was less than 100 nM. The value for `COc1ccc(F)c(Nc2cc(-c3nc(N4CCNCC4)c4c(C5CC5)cncc4n3)ccn2)c1F` [Example 566, [4-(5-Cyclopropyl-4-piperazin-1-yl-pyrido[3,4-d]pyrimidin-2-yl)-pyridin-2-yl]-(2,6-difluoro-3-methoxy-phenyl)-amine] was less than 100 nM; that for `CCOc1ccc(F)c(Nc2cc(-c3nc(N4CCNCC4)c4c(C5CC5)cncc4n3)ccn2)c1F` [Example 567, [4-(5-Cyclopropyl-4-piperazin-1-yl-pyrido[3,4-d]pyrimidin-2-yl)-pyridin-2-yl]-(3-ethoxy-2,6-difluoro-phenyl)-amine] was less than 100 nM; that for `Cc1cccc(Nc2cc(-c3nc(N4CCNCC4)c4c(C5CC5)cncc4n3)ccn2)c1Cl` [Example 568, (2-Chloro-3-methyl-phenyl)-[4-(5-cyclopropyl-4-piperazin-1-yl-pyrido[3,4-d]pyrimidin-2-yl)-pyridin-2-yl]-amine] was less than 100 nM. `C[C@H]1CN(c2nc(-c3ccnc(Nc4ccccc4)c3)nc3cncc(C4CC4)c23)CCN1` [Example 569, {4-[5-Cyclopropyl-4-((S)-3-methyl-piperazin-1-yl)-pyrido[3,4-d]pyrimidin-2-yl]-pyridin-2-yl}-phenyl-amine]: the 50% inhibitory concentration (IC50) is less than 100 nM. For `Fc1ccc(Nc2cc(-c3nc(N4CCNCC4)c4c(C5CC5)cncc4n3)ccn2)c(Cl)c1` [Example 570, (2-Chloro-4-fluoro-phenyl)-[4-(5-cyclopropyl-4-piperazin-1-yl-pyrido[3,4-d]pyrimidin-2-yl)-pyridin-2-yl]-amine] the value was less than 100 nM; for `COc1cccc(Nc2cc(-c3nc(N4CCNCC4)c4c(C5CC5)cncc4n3)ccn2)c1` [Example 571, [4-(5-Cyclopropyl-4-piperazin-1-yl-pyrido[3,4-d]pyrimidin-2-yl)-pyridin-2-yl]-(3-methoxy-phenyl)-amine], less than 100 nM. In the case of `Cc1ccc(Nc2cc(-c3nc(N4CCNCC4)c4c(C5CC5)cncc4n3)ccn2)c(Cl)c1` [Example 572, (2-Chloro-4-methyl-phenyl)-[4-(5-cyclopropyl-4-piperazin-1-yl-pyrido[3,4-d]pyrimidin-2-yl)-pyridin-2-yl]-amine], the concentration for half-maximal inhibition (IC50) is less than 100 nM. In the case of `Cc1ccc(Nc2cc(-c3nc(N4CCNCC4)c4c(C5CC5)cncc4n3)ccn2)c(C)c1` [Example 573, [4-(5-Cyclopropyl-4-piperazin-1-yl-pyrido[3,4-d]pyrimidin-2-yl)-pyridin-2-yl]-(2,4-dimethyl-phenyl)-amine], the IC50 was less than 100 nM.

For the molecule `Cc1cccc(Nc2cc(-c3nc(N4CCNCC4)c4c(C5CC5)cncc4n3)ccn2)c1F` [Example 574, [4-(5-Cyclopropyl-4-piperazin-1-yl-pyrido[3,4-d]pyrimidin-2-yl)-pyridin-2-yl]-(2-fluoro-3-methyl-phenyl)-amine], the concentration for half-maximal inhibition (IC50) was less than 100 nM. For `Cc1ccc(Nc2cc(-c3nc(N4CCNCC4)c4c(C5CC5)cncc4n3)ccn2)c(F)c1` [Example 575, [4-(5-Cyclopropyl-4-piperazin-1-yl-pyrido[3,4-d]pyrimidin-2-yl)-pyridin-2-yl]-(2-fluoro-4-methyl-phenyl)-amine] the value was less than 100 nM; for `Fc1ccc(Cl)c(Nc2cc(-c3nc(N4CCNCC4)c4c(C5CC5)cncc4n3)ccn2)c1` [Example 576, (2-Chloro-5-fluoro-phenyl)-[4-(5-cyclopropyl-4-piperazin-1-yl-pyrido[3,4-d]pyrimidin-2-yl)-pyridin-2-yl]-Amine], less than 100 nM.

As for `Cc1ccc(Cl)c(Nc2cc(-c3nc(N4CCNCC4)c4c(C5CC5)cncc4n3)ccn2)c1` [Example 577, (2-Chloro-5-methyl-phenyl)-[4-(5-cyclopropyl-4-piperazin-1-yl-pyrido[3,4-d]pyrimidin-2-yl)-pyridin-2-yl]-Amine], the IC50 is less than 100 nM.

Take `Fc1cccc(Nc2cc(-c3nc(N4CCNCC4)c4c(C5CC5)cncc4n3)ccn2)c1Cl` [Example 578, (2-Chloro-3-fluoro-phenyl)-[4-(5-eyclopropyl-4-piperazin-1-yl-pyrido[3,4-d]pyrimidin-2-yl)-pyridin-2-yl]-Amine]: the IC50 is less than 100 nM. The value for `COc1cc2nccc(-c3nc(N4CCNCC4)c4c(C5CC5)cncc4n3)c2cc1OC` [Example 579, 5-Cyclopropyl-2-(6,7-dimethoxy-quinolin-4-yl)-4-piperazin-1-yl-pyrido[3,4-d]pyrimidine] was 10000 to 40000 nM. The value for `COc1ccc(F)c(Nc2cc(-c3nc(N4CCNCC4)c4c(C5CC5)cncc4n3)ccn2)c1` [Example 580, [4-(5-Cyclopropyl-4-piperazin-1-yl-pyrido[3,4-d]pyrimidin-2-yl)-pyridin-2-yl]-(2-fluoro-5-methoxy-phenyl)-amine] was less than 100 nM. For `CC(=O)Nc1cc(-c2nc(N3CCNCC3)c3c(C4CC4)cncc3n2)ccn1` [Example 581, N-[4-(5-Cyclopropyl-4-piperazin-1-yl-pyrido[3,4-d]pyrimidin-2-yl)-pyridin-2-yl]-acetamide] the value was less than 100 nM. As for `Nc1cc(-c2nc(N3CCNCC3)c3c(C4CC4)cncc3n2)ccn1` [Example 582, 4-(5-Cyclopropyl-4-piperazin-1-yl-pyrido[3,4-d]pyrimidin-2-yl)-pyridin-2-ylamine], the IC50 was less than 100 nM.

On to `CC(C)C(=O)Nc1cc(-c2nc(N3CCNCC3)c3c(C4CC4)cncc3n2)ccn1` [Example 583, N-[4-(5-Cyclopropyl-4-piperazin-1-yl-pyrido[3,4-d]pyrimidin-2-yl)-pyridin-2-yl]-isobutyramide], for which the IC50 is less than 100 nM. Turning to `O=C(Nc1cc(-c2nc(N3CCNCC3)c3c(C4CC4)cncc3n2)ccn1)C1CC1` [Example 584, Cyclopropane-carboxylic acid [4-(5-cyclopropyl-4-piperazin-1-yl-pyrido[3,4-d]pyrimidin-2-yl)-pyridin-2-yl]-amide], the half-maximal inhibitory concentration (IC50) is less than 100 nM. `FC1(F)CC(Nc2cc(-c3nc(N4CCNCC4)c4c(C5CC5)cncc4n3)ccn2)C1` [Example 585, [4-(5-Cyclopropyl-4-piperazin-1-yl-pyrido[3,4-d]pyrimidin-2-yl)-pyridin-2-yl]-(3,3-difluorocyclo-butyl)-amine]: the IC50 is less than 100 nM. Regarding `C[C@@H](Nc1cc(-c2nc(N3CCNCC3)c3c(C4CC4)cncc3n2)ccn1)c1ccccc1` [Example 586, [4-(5-Cyclopropyl-4-piperazin-1-yl-pyrido[3,4-d]pyrimidin-2-yl)-pyridin-2-yl]-((R)-1-phenyl-ethyl)-amine], the half-maximal inhibitory concentration (IC50) was less than 100 nM.

Broadly, the IC50 is the midpoint of a concentration-inhibition curve.

The record behind these values is patent publication US9914730B2, “Azaquinazoline inhibitors of Atypical protein Kinase C” (Ignyta, Inc., priority 2012, dated 2018).
